Results on 27 compounds are retold here after ChEMBL document CHEMBL5223139, “Synthesis of 1-(5-(4-chlorophenyl)-1-(2,4-dichlorophenyl)-4-methyl-1H-pyrazol-3-yl)-2-morpholinoethane-1,2-dione analogues and their inhibitory activities with reduced cytotoxicity in lipopolysaccharide-induced BV2 cells” (Bioorg Med Chem Lett, 2023).

SMILES strings stand for the structures. pIC50: −log10 of the molar value. Activity calls are given as the source filed them. The calls are words filed in the database; no cut-off is given here.

A short description of data set [1]: Cytotoxicity against mouse BV-2 cells assessed as cell viability at 5 uM incubated for 24 hrs by MTT assay relative to control. The settings on record: read-out: Activity. It counts as toxicity, cell-based.
Data set [2] in a line: Cytotoxicity against mouse BV-2 cells assessed as cell viability at 10 uM incubated for 24 hrs by MTT assay relative to control. It counts as toxicity, cell-based. Conditions: read-out: Activity.
Data set [3] in a line: Inhibition of LPS-induced NO production in mouse BV-2 cells incubated for 24 hrs by Griess reagent based method. The settings on record: BV-2, 24 h. It counts as functional, cell-based.
Data set [4] is described as follows: Inhibition of LPS-induced NO production in mouse BV-2 cells at 5 uM incubated for 24 hrs by Griess reagent based method relative to control. The format is functional.
Data set [5] can be described thus: Inhibition of LPS-induced NO production in mouse BV-2 cells at 10 uM incubated for 24 hrs by Griess reagent based method relative to control. The format is functional.
Data set [6] concerns BV-2. The data set is described as follows: Inhibition of NF-kappaB activation in LPS-stimulated mouse BV-2 cells assessed as reduction in phosphorylated p65 level pretreated for 30 mins followed by LPS stimulation by Western blot analysis. The format is cell-based. Conditions: dose 5-20 µM.
The subject of data set [7] is BV-2. As to the kind of experiment: Inhibition of LPS-induced ERK phosphorylation in mouse BV-2 cells pretreated for 30 mins followed by LPS stimulation by Western blot analysis. The format is cell-based. The settings on record: dose 5-20 µM.
Data set [8] relates to BV-2. As to the kind of experiment: Antiinflammatory activity in LPS-induced mouse BV-2 cells assessed as reduction in COX-2 protein expression pretreated for 1 hr followed by LPS stimulation and measured after 18 hrs by Western blot analysis. It counts as functional, cell-based. The settings on record: dose 5-20 µM, time 19.0 hrs.
For data set [9], the system named is BV-2. As to the kind of experiment: Inhibition of NF-kappaB activation in LPS-stimulated mouse BV-2 cells assessed as reduction in phosphorylated IkappaB-alpha level pretreated for 30 mins followed by LPS stimulation by Western blot analysis. Conditions: dose 5-20 µM. It counts as cell-based.
Data set [10] has as its system BV-2. As to the kind of experiment: Antiinflammatory activity in LPS-induced mouse BV-2 cells assessed as reduction in IL-1beta mRNA expression pretreated for 1 hr followed by LPS stimulation and measured after 6 hrs by RT-PCR analysis. It counts as functional, cell-based. Conditions: dose 5-20 µM, time 7.0 hrs.
For data set [11], the system named is BV-2. The data set is described as follows: Antiinflammatory activity in LPS-induced mouse BV-2 cells assessed as reduction in IL-6 mRNA expression pretreated for 1 hr followed by LPS stimulation and measured after 6 hrs by RT-PCR analysis. The format is functional, cell-based. The settings on record: dose 5-20 µM, time 7.0 hrs.
The test system of data set [12] is BV-2. As to the kind of experiment: Antiinflammatory activity in LPS-induced mouse BV-2 cells assessed as reduction in COX-2 mRNA expression pretreated for 1 hr followed by LPS stimulation and measured after 6 hrs by RT-PCR analysis. The format is functional, cell-based. The settings on record: dose 5-20 µM, time 7.0 hrs.
Data set [13] has as its target MAP kinase p38 (Mus musculus) (UniProt P47811+O08911+Q9WUI1+Q9Z1B7). As to the kind of experiment: Inhibition of LPS-induced p38 phosphorylation in mouse BV-2 cells at 5 to 20 uM pretreated for 30 mins followed by LPS stimulation by Western blot analysis. The format is cell-based. Conditions: dose 5-20 µM.
Data set [14] deals with BV-2. As to the kind of experiment: Antiinflammatory activity in LPS-induced mouse BV-2 cells assessed as reduction in iNOS protein expression pretreated for 1 hr followed by LPS stimulation and measured after 18 hrs by Western blot analysis. It counts as functional, cell-based. Conditions: dose 5-20 µM, time 19.0 hrs.
The test system of data set [15] is BV-2. As to the kind of experiment: Antiinflammatory activity in LPS-induced mouse BV-2 cells assessed as reduction in iNOS mRNA expression pretreated for 1 hr followed by LPS stimulation and measured after 6 hrs by RT-PCR analysis. The settings on record: dose 5-20 µM, time 7.0 hrs. The format is functional, cell-based.
Data set [16] has as its system BV-2. As to the kind of experiment: Antiinflammatory activity in LPS-induced mouse BV-2 cells assessed as reduction in TNF-alpha mRNA expression pretreated for 1 hr followed by LPS stimulation and measured after 6 hrs by RT-PCR analysis. It counts as functional, cell-based. The settings on record: dose 5-20 µM, time 7.0 hrs.
The target in data set [17] is c-Jun N-terminal kinase (Mus musculus) (UniProt Q91Y86+Q9WTU6+Q61831). The data set is described as follows: Inhibition of LPS-induced JNK phosphorylation in mouse BV-2 cells at 5 to 20 uM pretreated for 30 mins followed by LPS stimulation by Western blot analysis. The format is cell-based. The settings on record: dose 5-20 µM.
Chain of c-Jun N-terminal kinase (Mus musculus) (Q61831 whole entry, looked up): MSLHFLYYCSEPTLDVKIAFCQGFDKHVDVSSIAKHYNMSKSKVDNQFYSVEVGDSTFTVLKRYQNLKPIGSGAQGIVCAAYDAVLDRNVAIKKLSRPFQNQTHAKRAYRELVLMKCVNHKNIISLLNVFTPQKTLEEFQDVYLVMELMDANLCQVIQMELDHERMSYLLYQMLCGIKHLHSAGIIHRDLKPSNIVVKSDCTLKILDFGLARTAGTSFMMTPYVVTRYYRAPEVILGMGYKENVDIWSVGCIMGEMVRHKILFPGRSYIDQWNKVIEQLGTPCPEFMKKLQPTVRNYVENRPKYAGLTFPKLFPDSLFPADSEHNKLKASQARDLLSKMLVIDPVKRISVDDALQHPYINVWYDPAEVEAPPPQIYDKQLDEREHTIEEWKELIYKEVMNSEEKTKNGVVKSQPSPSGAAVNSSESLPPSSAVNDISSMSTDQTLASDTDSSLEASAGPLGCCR
Chain of c-Jun N-terminal kinase (Mus musculus) (Q91Y86 whole entry, looked up): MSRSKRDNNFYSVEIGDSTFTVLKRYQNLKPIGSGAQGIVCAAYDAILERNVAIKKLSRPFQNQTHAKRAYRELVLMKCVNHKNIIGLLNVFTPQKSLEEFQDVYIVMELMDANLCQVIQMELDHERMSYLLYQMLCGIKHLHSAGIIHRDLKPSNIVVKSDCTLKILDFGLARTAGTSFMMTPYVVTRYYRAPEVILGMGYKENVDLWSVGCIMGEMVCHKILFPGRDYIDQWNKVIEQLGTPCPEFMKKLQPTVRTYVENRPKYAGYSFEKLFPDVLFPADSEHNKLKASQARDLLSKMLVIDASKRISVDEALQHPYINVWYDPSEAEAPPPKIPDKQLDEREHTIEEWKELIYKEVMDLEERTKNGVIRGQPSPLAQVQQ
Chain of c-Jun N-terminal kinase (Mus musculus) (Q9WTU6 whole entry, looked up): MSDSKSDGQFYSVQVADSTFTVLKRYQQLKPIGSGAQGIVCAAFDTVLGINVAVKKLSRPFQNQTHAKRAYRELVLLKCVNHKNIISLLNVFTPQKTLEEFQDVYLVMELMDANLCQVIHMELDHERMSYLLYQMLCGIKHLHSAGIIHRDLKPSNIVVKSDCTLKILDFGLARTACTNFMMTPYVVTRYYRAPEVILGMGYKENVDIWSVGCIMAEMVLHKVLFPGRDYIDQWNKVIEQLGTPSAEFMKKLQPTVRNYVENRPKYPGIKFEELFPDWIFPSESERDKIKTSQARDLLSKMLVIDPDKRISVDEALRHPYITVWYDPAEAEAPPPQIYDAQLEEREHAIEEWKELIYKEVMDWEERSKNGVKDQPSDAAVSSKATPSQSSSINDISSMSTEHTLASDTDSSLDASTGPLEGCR

Consider `Cc1c(C(=O)C(=O)NC(C)(C)C)nn(-c2ccc(Cl)cc2Cl)c1-c1ccc(Cl)cc1`, for which the viability at 24 h, 5 µM in data set [1] was less than 80%.

As for `Cc1c(C(=O)C(=O)NC2CCCCCC2)nn(-c2ccc(Cl)cc2Cl)c1-c1ccc(Cl)cc1`, in data set [1], the viability at 24 h, 5 µM was less than 80%.

`Cc1c(C(=O)NN2CCCCC2)nn(-c2ccc(Cl)cc2Cl)c1-c1ccc(Cl)cc1` [RIMONABANT]: the viability at 24 h, 10 µM in data set [2] was determined as 91.2%. Moreover, the pIC50 in data set [3] was 4.79. The compound also returned an inhibition at 5 µM in data set [4] of 21.2%. Moreover, the viability at 24 h, 5 µM in [1] turned out to be 99.3%. In [5], this compound had an inhibition at 10 µM of 43.9%.

Consider `Cc1c(C(=O)C(=O)NC2CCC(O)CC2)nn(-c2ccc(Cl)cc2Cl)c1-c1ccc(Cl)cc1` (stereo unspecified), for which, in data set [1], the viability at 24 h, 5 µM was less than 80%.

Take `Cc1c(C(=O)C(=O)NC2CCCCC2)nn(-c2ccc(Cl)cc2Cl)c1-c1ccc(Cl)cc1`: the viability at 24 h, 10 µM in data set [2] is less than 80%. The compound also had an inhibition at 5 µM in [4] of 87.4%. Besides, the viability at 24 h, 5 µM in data set [1] is 96.8%.

Regarding `CCCCCNC(=O)C(=O)c1nn(-c2ccc(Cl)cc2Cl)c(-c2ccc(Cl)cc2)c1C`, the viability at 24 h, 5 µM in data set [1] was less than 80%.

With `Cc1c(C(=O)C(=O)N2CCC(O)CC2)nn(-c2ccc(Cl)cc2Cl)c1-c1ccc(Cl)cc1`, the viability at 24 h, 5 µM in data set [1] was less than 80%.

As for `Cc1c(C(=O)C(=O)N2CCOCC2)nn(-c2ccc(Cl)cc2Cl)c1-c1ccc(Cl)cc1`, the inhibition result in the data set on BV-2 [6], in the data set on BV-2 [7] and in the data set on BV-2 [9] was “Dose-Dependent Effect” throughout. For the same compound, the Activity result in the data set on BV-2 [8], in the data set on BV-2 [10], in the data set with BV-2 [11], in the data set with BV-2 [12], in the data set with BV-2 [14] and in the data set on BV-2 [15] was “Dose-Dependent Effect” each time. For the same compound, in the data set with BV-2 [16], the Activity entry was “Dose-Dependent Effect”. The viability at 24 h, 10 µM in data set [2] was determined as 98.7%. This compound had a pIC50 in [3] of 5.33. The inhibition at 5 µM in [4] stood at 26.1%. Further, the inhibition entry in data set [13] and in [17] was “inactive” in each case. Moreover, the viability at 24 h, 5 µM in data set [1] turned out to be 98%. Further, the inhibition at 10 µM in data set [5] turned out to be 49.7%.

For `CCCCCCCCNC(=O)C(=O)c1nn(-c2ccc(Cl)cc2Cl)c(-c2ccc(Cl)cc2)c1C`, the viability at 24 h, 5 µM in [1] is less than 80%.

Take `Cc1c(C(=O)C(=O)NCCO)nn(-c2ccc(Cl)cc2Cl)c1-c1ccc(Cl)cc1`: in [2], the viability at 24 h, 10 µM came out at 93.6%. In data set [3], this compound gave a pIC50 of 5.29. Also, at 5 µM the inhibition in [4] was 62.8%. Besides, the viability at 24 h, 5 µM in data set [1] came to 94.2%. Testing at 10 µM in data set [5] gave an inhibition of 73.4%.

Regarding `Cc1c(C(=O)C(=O)NC23CC4CC(CC(C4)C2)C3)nn(-c2ccc(Cl)cc2Cl)c1-c1ccc(Cl)cc1`, the viability at 24 h, 5 µM in data set [1] is less than 80%.

For `Cc1c(C(=O)C(=O)NCCCO)nn(-c2ccc(Cl)cc2Cl)c1-c1ccc(Cl)cc1`, the viability at 24 h, 5 µM in data set [1] is less than 80%.

Consider `CCNC(=O)C(=O)c1nn(-c2ccc(Cl)cc2Cl)c(-c2ccc(Cl)cc2)c1C`, for which the viability at 24 h, 10 µM in data set [2] was less than 80%. This compound also came in with an inhibition at 5 µM in [4] of 63.7%. Besides, the viability at 24 h, 5 µM in data set [1] is 86.4%.

As to `Cc1c(C(=O)C(=O)NCC(C)C)nn(-c2ccc(Cl)cc2Cl)c1-c1ccc(Cl)cc1`, in data set [1], the viability at 24 h, 5 µM was less than 80%.

As for `CCCNC(=O)C(=O)c1nn(-c2ccc(Cl)cc2Cl)c(-c2ccc(Cl)cc2)c1C`, the viability at 24 h, 5 µM in [1] was less than 80%.

For `Cc1c(C(=O)C(=O)NC(C)C)nn(-c2ccc(Cl)cc2Cl)c1-c1ccc(Cl)cc1`, in data set [1], the viability at 24 h, 5 µM is less than 80%.

For the compound `Cc1c(C(=O)C(=O)NN2CCCCC2)nn(-c2ccc(Cl)cc2Cl)c1-c1ccc(Cl)cc1`, the viability at 24 h, 5 µM in data set [1] was less than 80%.

Consider `Cc1c(C(=O)C(=O)NC2CCCC2)nn(-c2ccc(Cl)cc2Cl)c1-c1ccc(Cl)cc1`, for which the viability at 24 h, 5 µM in [1] is less than 80%.

Regarding `Cc1c(C(=O)C(=O)N2CCN(C)CC2)nn(-c2ccc(Cl)cc2Cl)c1-c1ccc(Cl)cc1`, in data set [2], the viability at 24 h, 10 µM is not above 80%. The compound also yielded an inhibition at 5 µM in data set [4] of 38.1%. Also, the viability at 24 h, 5 µM in data set [1] was 95.2%. This compound also had an inhibition at 10 µM in [5] of 48%.

Consider `Cc1c(C(=O)C(=O)N2CCSCC2)nn(-c2ccc(Cl)cc2Cl)c1-c1ccc(Cl)cc1`, for which, in data set [2], the viability at 24 h, 10 µM was 96.5%. Also, the pIC50 in [3] is 5.28. The compound further had an inhibition at 5 µM in [4] of 13.5%. In [1], the viability at 24 h, 5 µM amounted to 99.6%. In addition, the inhibition at 10 µM in data set [5] stood at 58.3%.

For `Cc1c(C(=O)C(=O)N2CCCCC2)nn(-c2ccc(Cl)cc2Cl)c1-c1ccc(Cl)cc1`, the viability at 24 h, 10 µM in data set [2] came to 80%. Besides, in [3], the negative-log IC50 (pIC50) is 5.24. Further, the inhibition at 5 µM in data set [4] was 20.3%. Further, the viability at 24 h, 5 µM in data set [1] is 98.2%. Besides, the inhibition at 10 µM in data set [5] was 50.1%.

Regarding `Cc1c(C(=O)C(=O)N2CCNCC2)nn(-c2ccc(Cl)cc2Cl)c1-c1ccc(Cl)cc1`, in [1], the viability at 24 h, 5 µM is less than 80%.

Consider `Cc1c(C(=O)C(=O)N2CCCCCC2)nn(-c2ccc(Cl)cc2Cl)c1-c1ccc(Cl)cc1`, for which, in [1], the viability at 24 h, 5 µM is less than 80%.

Turning to `CCCCCCNC(=O)C(=O)c1nn(-c2ccc(Cl)cc2Cl)c(-c2ccc(Cl)cc2)c1C`, the viability at 24 h, 5 µM in data set [1] is less than 80%.

For `CCCCCCCNC(=O)C(=O)c1nn(-c2ccc(Cl)cc2Cl)c(-c2ccc(Cl)cc2)c1C`, in [1], the viability at 24 h, 5 µM was less than 80%.

`CCCCNC(=O)C(=O)c1nn(-c2ccc(Cl)cc2Cl)c(-c2ccc(Cl)cc2)c1C`: in [1], the viability at 24 h, 5 µM was less than 80%.

`Cc1c(C(=O)C(=O)N2CCCC2)nn(-c2ccc(Cl)cc2Cl)c1-c1ccc(Cl)cc1`: in [1], the viability at 24 h, 5 µM is less than 80%.
